Data from patent US8414885B2, “Methods and compositions for treating cancer” (priority 2009, dated 2013).

Experiments:
LC3-I/LC3-II = assay: Immunoblotting for LC3-I conversion to LC3-II (autophagy); type: cell-based, human; settings: A2058, 3-MA 5 mM
Procedure: (§1) FIG. 14. ΔPK induced autophagy contributes to its ability to cause melanoma cell death. (A) A2058 cells were mock or ΔPK-infected (multiplicity of infection, moi=1.0) with and without the autophagy inhibitor 3-MA and protein extracts were assayed for LC3-I and LC3-II expression by immunoblotting. Data were quantified by densitometric scanning, and results are expressed as LC3-I/LC3-II ratio±s.d. (B). A2058 melanoma cultures were mock or ΔPK-infected (moi=5), cultured in serum-free medium and stained with ethidium homodimer-1 (EtHD-1) at 48 h p.i. Cells were counted in three randomly selected fields (>250 cells) and the mean percentage of staining cells was calculated.
The role of autophagy in cell death is still controversial. The general consensus is that autophagy is a mechanism that promotes or counteracts cell death depending on the cell type, stimulus and conditions. […] To examine whether autophagy was increased in ΔPK infected cells, we focused on LC3-I conversion to LC3-II which serves as a marker for autophagosome maturation.
A2058 cells were mock and ΔPK-infected (multiplicity of infection, moi=1.0) with and without the autophagy inhibitor 3-MA. Data were quantified by densitometric scanning, and results are expressed as the ratio of the LC3-I/LC3-II ratio±s.d.

A2058 melanoma cultures = assay: EtHD-1 cell death with or without autophagy inhibitor; type: cell-based, human; settings: A2058, ΔPK plus 3-MA, 48 h p.i.
Procedure: as §1
To examine the role of autophagy in ΔPK-induced melanoma cell death, the cultures were mock-infected with PBS or infected with ΔPK in the absence or presence of 3-MA and cell death was determined at 0-72 h p.i. by EtHD-1 staining. ΔPK caused a time-dependent increase in the percentage of EtHD-1+ cells that reached maximal levels at 48 h p.i. (51.1±4.8%,).
A2058 melanoma cultures were mock or ΔPK-infected (moi=0.5), cultured in serum-free medium and stained with ethidium homodimer-1 (EtHD-1) at 48 h p.i. Cells were counted in three randomly selected fields (>250 cells) and the mean percentage of staining cells was calculated.

Cn1cnc(N)c2ncnc1-2 [3-MA, 3-Methyl-adenine]
effect of inhibitor on LC3-I conversion after ΔPK treatment (LC3-I/LC3-II): reversed LC3-I conversion | percentage of cell death (EtHD-1+) in ΔPK infected cultures in presence of inhibitor (A2058 melanoma cultures): 37.3±5.2%
